Results from patent EP2951180B1, “2,6,7,8 SUBSTITUTED PURINES AS HDM2 INHIBITORS” (Merck Sharp & Dohme Corp., priority 2013, dated 2014).

Molecular target: T1, HDM2 (Homo sapiens, UniProt Q00987)
T1 construct: Thioredoxin (N); made in house; host or cells: E. coli strain BL21(DE3)Rosetta
Test: HDM2 FRET assay (inhibition of binding of FITC labeled p53-pocket peptide to HDM2)
Conditions: 0.5 nM HDM2 (residues 17 to 125), 3nM peptide, two hour incubation at room temperature; read-out: FRET IC50
In short: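 TR-FRET with 0.5 nM His-tagged recombinant HDM2, 3 nM FITC-labelled p53 peptide and 0.25 nM Tb-anti-His antibody in PBS, 0.01% BSA, 0.01% Tween-20, 0.1% DMSO. IC50 from em520/em495 ratio over 10-point dilutions, 4-parameter logistic fit.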

T1 sequence (Q00987 17-125): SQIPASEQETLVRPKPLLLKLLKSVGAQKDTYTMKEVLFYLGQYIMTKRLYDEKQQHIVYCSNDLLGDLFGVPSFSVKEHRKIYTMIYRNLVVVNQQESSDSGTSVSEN

C[C@H]1CC[C@H](Cn2c(N3CCOC[C@H]3c3ccccc3)nc3nc(-c4noc(=O)[nH]4)nc(-c4cc(Cl)cnc4F)c32)CC1 [Example 16.108, 3-{6-(5-chloro-2-fluoropyridin-3-yl)-7-[(trans-4-methylcyclohexyl)methyl]-8-[(3R)-3-phenylmorpholin-4-yl]-7H-purin-2-yl}-1,2,4-oxadiazol-5(4H)-one]
IC50: 1.16 nM

COc1cc(-c2nc(-c3noc(=O)[nH]3)nc3nc(N4CCOC[C@H]4c4ccccc4)n(C[C@H]4CC[C@H](C)CC4)c23)cc(Cl)n1 [Example 16.109, 3-{6-(2-chloro-6-methoxypyridin-4-yl)-7-[(trans-4-methylcyclohexyl)methyl]-8-[(3R)-3-phenylmorpholin-4-yl]-7H-purin-2-yl}-1,2,4-oxadiazol-5(4H)-one]
IC50: 1.21 nM

C[C@H]1CC[C@H](Cn2c(N3CCOC[C@H]3c3ccccc3)nc3nc(-c4noc(=O)[nH]4)nc(-c4ccnc(Cl)c4)c32)CC1 [Example 16.110, 3-{6-(2-chloropyridin-4-yl)-7-[(trans-4-methylcyclohexyl)methyl]-8-[(3R)-3-phenylmorpholin-4-yl]-7H-purin-2-yl}-1,2,4-oxadiazol-5(4H)-one]
IC50: 1.14 nM

CS(=O)(=O)c1cc(Cl)cc(-c2nc(-c3noc(=O)[nH]3)nc3nc(N4CCOC[C@H]4c4ccccc4)n(C[C@H]4CC[C@H](C)CC4)c23)c1 [Example 16.111, 3-{6-[3-chloro-5-(methylsulfonyl)phenyl]-7-[(trans-4-methylcyclohexyl)methyl]-8-[(3R)-3-phenylmorpholin-4-yl]-7H-purin-2-yl}-1,2,4-oxadiazol-5(4H)-one]
IC50: 2.9 nM

Cc1nc(-c2cccc(-c3nc(-c4noc(=O)[nH]4)nc4nc(N5CCOC[C@H]5c5ccccc5)n(C[C@H]5CC[C@H](C)CC5)c34)c2)no1 [Example 16.112, 3-{7-[(trans-4-methylcyclohexyl)methyl]-6-[3-(5-methyl-1,2,4-oxadiazol-3-yl)phenyl]-8-[(3R)-3-phenylmorpholin-4-yl]-7H-purin-2-yl}-1,2,4-oxadiazol-5(4H)-one]
IC50: 18 nM

C[C@H]1CC[C@H](Cn2c(N3CCOC[C@H]3c3ccccc3)nc3nc(-c4noc(=O)[nH]4)nc(-c4cc(Cl)cc(N5CCCC5)c4)c32)CC1 [Example 16.113, 3-{6-(3-chloro-5-pyrrolidin-1-ylphenyl)-7-[(trans-4-methylcyclohexyl)methyl]-8-[(3R)-3-phenylmorpholin-4-yl]-7H-purin-2-yl}-1,2,4-oxadiazol-5(4H)-one]
IC50: 14.9 nM

Cc1cc(Cl)cc(-c2nc(-c3noc(=O)[nH]3)nc3nc(N4CCOC[C@H]4c4ccccc4)n(C[C@H]4CC[C@H](C)CC4)c23)c1 [Example 16.114, 3-{6-(3-chloro-5-methylphenyl)-7-[(trans-4-methylcyclohexyl)methyl]-8-[(3R)-3-phenylmorpholin-4-yl]-7H-purin-2-yl}-1,2,4-oxadiazol-5(4H)-one]
IC50: 1.56 nM

Cc1cncc(-c2nc(-c3noc(=O)[nH]3)nc3nc(N4CCOC[C@H]4c4ccccc4)n(C[C@H]4CC[C@H](C)CC4)c23)c1 [Example 16.115, 3-{7-[(trans-4-methylcyclohexyl)methyl]-6-(5-methylpyridin-3-yl)-8-[(3R)-3-phenylmorpholin-4-yl]-7H-purin-2-yl}-1,2,4-oxadiazol-5(4H)-one]
IC50: 3.92 nM

Cc1noc([C@@H]2COCCN2c2nc3nc(-c4noc(=O)[nH]4)nc(-c4cccc(Cl)c4)c3n2C[C@H]2CC[C@H](C)CC2)n1 [Example 16.116, 3-{6-(3-chlorophenyl)-7-[(trans-4-methylcyclohexyl)methyl]-8-[(3S)-3-(3-methyl-1,2,4-oxadiazol-5-yl)morpholin-4-yl]-7H-purin-2-yl}-1,2,4-oxadiazol-5(4H)-one]
IC50: 7.26 nM

C[C@H]1CC[C@H](Cn2c(N3CCOC[C@H]3C(N)=O)nc3nc(-c4noc(=O)[nH]4)nc(-c4cccc(Cl)c4)c32)CC1 [Example 16.117, (3 S)-4-[6-(3-chlorophenyl)-7-[(trans-4-methylcyclohexyl)methyl]-2-(5-oxo-4,5-dihydro-1,2,4-oxadiazol-3-yl)-7H-purin-8-yl]morpholine-3-carboxamide]
IC50: 105 nM

Cc1csc([C@@H]2COCCN2c2nc3nc(-c4noc(=O)[nH]4)nc(-c4cccc(Cl)c4)c3n2C[C@H]2CC[C@H](C)CC2)n1 [Example 16.120, 3-{6-(3-chlorophenyl)-7-[(trans-4-methylcyclohexyl)methyl]-8-[(3S)-3-(4-methyl-1,3-thiazol-2-yl)morpholin-4-yl]-7H-purin-2-yl}-1,2,4-oxadiazol-5(4H)-one]
IC50: 9.14 nM

Cc1noc([C@@H]2COCCN2c2nc3nc(-c4n[nH]c(=O)o4)nc(-c4cccc(Cl)c4)c3n2C[C@H]2CC[C@H](C)CC2)n1 [Example 16.121, 5-{6-(3-chlorophenyl)-7-[(trans-4-methylcyclohexyl)methyl]-8-[(3S)-3-(3-methyl-1,2,4-oxadiazol-5-yl)morpholin-4-yl]-7H-purin-2-yl}-1,3,4-oxadiazol-2(3H)-one]
IC50: 9.18 nM

C[C@@H]1OCCN(c2nc3nc(-c4noc(=O)[nH]4)nc(-c4cccc(Cl)c4)c3n2C[C@H]2CC[C@H](C)CC2)[C@@H]1c1ccccc1 [Example 16.126, 3-{6-(3-chlorophenyl)-7-[(trans-4-methylcyclohexyl)methyl]-8-[(2S,3R)-2-methyl-3-phenylmorpholin-4-yl]-7H-purin-2-yl}-1,2,4-oxadiazol-5(4H)-one]
IC50: 85.6 nM

C[C@H]1OCCN(c2nc3nc(-c4noc(=O)[nH]4)nc(-c4cccc(Cl)c4)c3n2C[C@H]2CC[C@H](C)CC2)[C@@H]1c1ccccc1 [Example 16.127, 3-{6-(3-chlorophenyl)-7-[(trans-4-methylcyclohexyl)methyl]-8-[(2R,3R)-2-methyl-3-phenylmorpholin-4-yl]-7H-purin-2-yl}-1,2,4-oxadiazol-5(4H)-one]
IC50: 1.06 nM

C[C@@H]1OCCN(c2nc3nc(-c4noc(=O)[nH]4)nc(-c4cncc(Cl)c4)c3n2C[C@H]2CC[C@H](C)CC2)[C@@H]1c1ccccc1 [Example 16.129, 3-{6-(5-chloropyridin-3-yl)-7-[(trans-4-methylcyclohexyl)methyl]-8-[(2S,3R)-2-methyl-3-phenylmorpholin-4-yl]-7H-purin-2-yl}-1,2,4-oxadiazol-5(4H)-one]
IC50: 21.9 nM

C[C@@H]1OCCN(c2nc3nc(-c4n[nH]c(=O)o4)nc(-c4cncc(Cl)c4)c3n2C[C@H]2CC[C@H](C)CC2)[C@@H]1c1ccccc1 [Example 16.130, 5-{6-(5-chloropyridin-3-yl)-7-[(trans-4-methylcyclohexyl)methyl]-8-[(2S,3R)-2-methyl-3-phenylmorpholin-4-yl]-7H-purin-2-yl}-1,3,4-oxadiazol-2(3H)-one]
IC50: 28.9 nM

C[C@@H]1OCCN(c2nc3nc(-c4n[nH]c(=O)o4)nc(-c4cccc(Cl)c4)c3n2C[C@H]2CC[C@H](C)CC2)[C@@H]1c1ccccc1 [Example 16.132, 5-{6-(3-chlorophenyl)-7-[(trans-4-methylcyclohexyl)methyl]-8-[(2S,3R)-2-methyl-3-phenylmorpholin-4-yl]-7H-purin-2-yl} - 1,3,4-oxadiazol-2(3H)-one]
IC50: 89.5 nM

C[C@H]1OCCN(c2nc3nc(-c4n[nH]c(=O)o4)nc(-c4cncc(Cl)c4)c3n2C[C@H]2CC[C@H](C)CC2)[C@@H]1c1ccccc1 [Example 16.133, 5-{6-(5-chloropyridin-3-yl)-7-[(trans-4-methylcyclohexyl)methyl]-8-[(2R,3R)-2-methyl-3-phenylmorpholin-4-yl]-7H -purin-2-yl}-1,3,4-oxadiazol-2(3H)-one]
IC50: 0.569 nM

C[C@H]1OCCN(c2nc3nc(-c4noc(=O)[nH]4)nc(-c4cncc(Cl)c4)c3n2C[C@H]2CC[C@H](C)CC2)[C@@H]1c1ccccc1 [Example 16.135, 3-{6-(5-chloropyridin-3-yl)-7-[(trans-4-methylcyclohexyl)methyl]-8-[(2R,3R)-2-methyl-3-phenylmorpholin-4-yl]-7H-purin-2-yl}-1,2,4-oxadiazol-5(4H)-one]
IC50: 0.504 nM

C[C@@H]1[C@@H](C)OCCN1c1nc2nc(-c3noc(=O)[nH]3)nc(-c3cncc(Cl)c3)c2n1C[C@H]1CC[C@H](C)CC1 [Example 16.136, 3-{6-(5-chloropyridin-3-yl)-8-[(2R,3R)-2,3-dimethylmorpholin-4-yl]-7-[(trans-4-methylcyclohexyl)methyl]-7H-purin-2-yl}-1,2,4-oxadiazol-5(4H)-one]
IC50: 7.19 nM

C[C@H]1CC[C@H](Cn2c(N3CCOC[C@H]3CF)nc3nc(-c4noc(=O)[nH]4)nc(-c4cccc(Cl)c4)c32)CC1 [Example 16.137, 3-{6-(3-chlorophenyl)-8-[(3S)-3-(fluoromethyl)morpholin-4-yl]-7-[(trans-4-methylcyclohexyl)methyl]-7H-purin-2-yl}-1,2,4-oxadiazol-5(4H)-one]
IC50: 11.9 nM

Cc1nnc([C@@H]2COCCN2c2nc3nc(-c4noc(=O)[nH]4)nc(-c4cccc(Cl)c4)c3n2C[C@H]2CC[C@H](C)CC2)o1 [Example 16.138, 3-{6-(3-chlorophenyl)-7-[(trans-4-methylcyclohexyl)methyl]-8-[(3S)-3-(5-methyl-1,3,4-oxadiazol-2-yl)morpholin-4-yl]-7H-purin-2-yl}-1,2,4-oxadiazol-5(4H)-one]
IC50: 79.1 nM

C[C@H]1CC[C@H](Cn2c(N3CCOC[C@H]3CF)nc3nc(-c4n[nH]c(=O)o4)nc(-c4cncc(Cl)c4)c32)CC1 [Example 16.139, 5-{6-(5-chloropyridin-3-yl)-8-[(3S)-3-(fluoromethyl)morpholin-4-yl]-7-[(trans-4-methylcyclohexyl)methyl]-7H-purin-2-yl}-1,3,4-oxadiazol-2(3H)-one]
IC50: 37.1 nM

C[C@@H]1[C@@H](C)OCCN1c1nc2nc(-c3n[nH]c(=O)o3)nc(-c3cncc(Cl)c3)c2n1C[C@H]1CC[C@H](C)CC1 [Example 16.140, 5-{6-(5-chloropyridin-3-yl)-8-[(2R,3R)-2,3-dimethylmorpholin-4-yl]-7-[(trans-4-methylcyclohexyl)methyl]-7H-purin-2-yl}-1,3,4-oxadiazol-2(3H)-one]
IC50: 9.45 nM
